Assays:
PTP1B-OX [1] = molecular target: T1, PTP1B-OX (Homo sapiens, UniProt P18031); test: reduction and reactivation of reversibly oxidized PTP1B by TCEP, DiFMUP substrate; format: biochemical; conditions: for restoration of PTP1B-OX activity by TCEP in LOPAC primary screen: compound 10 μM; for IC50: wild-type PTP1B-OX, reactivation by TCEP, DiFMUP substrate, read-out: IC50 against PTP1B-OX
T1 construct: Purified PTP1B (1–321) (100 nM) was mixed with increasing concentrations of H2O2; 6xHis (C); made in house; host or cells: E. coli BL21 (DE3)-RIL
T1 sequence (P18031 1-321): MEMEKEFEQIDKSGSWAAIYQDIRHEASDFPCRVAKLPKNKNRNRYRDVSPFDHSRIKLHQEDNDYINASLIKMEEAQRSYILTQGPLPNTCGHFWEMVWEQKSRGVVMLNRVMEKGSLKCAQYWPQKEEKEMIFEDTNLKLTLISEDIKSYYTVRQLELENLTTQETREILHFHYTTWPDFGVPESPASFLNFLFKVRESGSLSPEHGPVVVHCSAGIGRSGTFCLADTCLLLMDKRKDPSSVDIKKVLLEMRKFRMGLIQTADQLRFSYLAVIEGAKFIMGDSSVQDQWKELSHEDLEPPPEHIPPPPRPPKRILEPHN
Description: Therefore, our approach has been to adapt this assay, which we used to screen for conformation-sensor scFvs[17], now to screen for small molecules that act through a similar mechanism. Our primary screening assay tested the ability of small molecule inhibitors to antagonize the reduction and reactivation of the oxidized conformation of PTP1B, similar to that of scFv45 (Fig. 4a).
(§1) Purified PTP1B (1–321) (100 nM) was mixed with increasing concentrations of H2O2 (0.05–100 mM) in phosphatase assay buffer (50 mM HEPES, pH 7.0, 100 mM NaCl, 0.1% BSA) at room temperature for 5 min. From this reaction mixture PTP1B (10 nM) was used to monitor phosphatase activity using DiFMUP as the substrate, with or without 5 mM TCEP. Activity of each sample was compared to that of the untreated PTP1B in the presence of 5 mM TCEP.
To screen the LOPAC library against PTP1B-OX, 0.5 μl of 1 mM compound in 100% DMSO was added to 384-well plates, resulting in a final compound concentration of 10 μM for the primary screen. Recombinant PTP1B (100 nM) was reversibly oxidized and inactivated with H2O2 (4 mM). The phosphatase activity was restored by a quick buffer exchange and addition of reducing agent (TCEP). PTP1B-OX was incubated with LOPAC compounds (10 μM) in the assay buffer (50 mM HEPES pH 7.0, 100 mM NaCl, 0.005% Tween, 2 mM EDTA) and the effect of individual compound on stabilizing the reversibly oxidized conformation was assessed by the phosphatase assay under reducing conditions using DiFMUP as substrate. scFv45 was used as positive control.

reduced PTP1B = molecular target: T2, reduced PTP1B (Homo sapiens, UniProt P18031); test: phosphatase activity of reduced PTP1B, DiFMUP substrate; format: biochemical
T2 construct: Purified PTP1B (1–321) (100 nM) was mixed with increasing concentrations of H2O2; 6xHis (C); made in house; host or cells: E. coli BL21 (DE3)-RIL
T2 sequence (P18031 1-321): T1 sequence (P18031 1-321)
Description: Fig. 4 Identification and characterization of small molecules that mimic the effect of scFv45. a Reversibly oxidized PTP1B (PTP1B-OX) was generated by incubation with H2O2 in vitro, desalted, then assayed (20 nM) in the presence and absence of individual members of the LOPAC library. In the right panel, each dot represents an activity measurement. […] Data are representative of at least two independent experiments (n = 2). b Increasing concentration of sanguinarine was tested against reduced (circle) and oxidized (square) forms of PTP1B, using DiFMUP as substrate. c Increasing concentration of levamisole was tested against reduced (circle) and oxidized (square) PTP1B, using DiFMUP as substrate. d PTP1B-OX (200 nM) was incubated with sanguinarine (25 µM) for 5 min and the complex was diluted 100-fold and the activity was monitored for 120 min continuously. e PTP1B-OX (200 nM) was incubated with levamisole (40 µM) for 5 min and the complex was diluted 100-fold and the activity was monitored for 120 min continuously. f Increasing concentration of chelerythrine, an analog of sanguinarine, was tested against reduced (circle) and oxidized (square) forms of PTP1B, using DiFMUP as substrate. […] Individual data points represent the mean obtained from three separate experiments (n = 3; b–g)
as §1

PTP1B-OX [2] = molecular target: T1, PTP1B-OX; test: reduction and reactivation of reversibly oxidized PTP1B by TCEP, DiFMUP substrate; format: biochemical; conditions: complex diluted 100-fold, activity monitored 120 min
PKC = conditions: cited from earlier work

Compound | restoration of PTP1B-OX activity by TCEP in LOPAC primary screen (PTP1B-OX [1]) | IC50 (PTP1B-OX [1]) | inhibition of the reduced form of PTP1B (reduced PTP1B) | reversibility of PTP1B-OX inhibition (PTP1B-OX [2]) | inhibition of PKC (PKC)
C[n+]1cc2c3c(ccc2c2ccc4cc5c(cc4c21)OCO5)OCO3 [sanguinarine] | only able to restore enzymatic activity partially | 25 µM | no effect | reversible | not an inhibitor
c1ccc([C@H]2CN3CCSC3=N2)cc1 [levamisole] | only able to restore enzymatic activity partially | 36 µM | no effect | reversible | –

From PMC5773487, “Harnessing insulin- and leptin-induced oxidation of PTP1B for therapeutic development” (Nature Communications, 2018)
